Key:
[1] = Potency in vivo, model not stated; conditions: prior art peptides compared
[2] = in vivo, cited from earlier work
[3] = tested on: chemokine-induced migration; assay: BSCI activity in vitro, chemokine-induced migration (general statements); assay type: cell-based; conditions: prior art peptides compared
[4] = Water solubility (observation); assay type: physicochemical
[5] = Pharmacokinetics following a single dose in rat (LC-MS/MS of blood, one-compartment model); assay type: in vivo; conditions: single oral dose
Method: Compounds were administered as a single dose (either 1 mg/kg bodyweight in 5% DMSO via the intravenous route or 3 mg/kg in 1% carboxymethylcellulose via the oral route) to three adult rats (using different rats for each compound and each route of administration).
Blood was then sampled at various time points (including just prior to dose administration) out to 24 hrs post dose, and the level of the various compounds was assessed using a validated LC-MS/MS assay. Briefly, 3-5 μl of the deproteinised sample was applied to a Waters Atlantis (C18 20×2.1 mm, 3 μm bead size) reverse phase chromatography column equilibrated in 0.1% formic acid in 95:5 water:actetonitrile. Over 3.5 minutes bound material was gradient eluted reaching 0.1% formic acid in 5:95 water:acetonitrile, followed by a step gradient back to 0.1% formic acid in 95:5 water:acetonitrile. The column eluent was then directed to an Applied Biosystems API 4000/3200 QTrap MS/MS mass spectrometer, with a Turbolonspray™ ion source operating in positive ion mode. The interface temperature was set at 650° C., with a 40 ms dwell time for each MRM transition, monitoring the following ions:
The internal standard in each determination was the related compound (S)-3-(2′,2′-dimethylpropanoylamino)-caprolactam, which was spiked into the sample prior to deproteinization. The lower limit of quantitation (LLOQ) for this assay was 2.4 ng/ml for each compound except (I′), where it was 38.1 ng/ml.
Following LC-MS/MS analysis of each collected sample, the pharmacokinetic disposition of the compound was modelled using Kinetica software, a well known software package for such applications.

[6] = tested on: lung leukocyte recruitment and T-helper cell polarisation; assay: Ovalbumin-induced lung inflammation model of asthma (BAL leukocyte count, splenocyte Th1/Th2 ratio); assay type: in vivo, Brown Norway rat; conditions: rat, 30 mg/kg daily oral
Method: Adult Brown Norway rats (200-300 g body weight; n=10 per group) were sensitised by a single intraperitoneal injection of 0.1 mg Ovalbumin on day 0. Each rat then received an intratracheal challenge with a solution of 1% ovalbumin (w/v) on day 8, and with 2% ovalbumin (w/v) on days 15, 18 and 21. The animals were then sacrificed 3 hours after the final challenge on day 21. Note that ovalbumin (Sigma; purest available grade) was made endotoxin-free by passage over EndoTrap™ Red columns (purchased from Cambrex; used in accordance with the manufacturer's instructions), and the endotoxin level was confirmed as <5 EU/mg protein using the LAL assay (QCL-1000™; Cambrex; performed in accordance with the manufacturer's instructions; 1 mg of standard endotoxin contains ˜900,000 EU/mg). […]
On sacrifice, total lung leukocyate recruitment was assessed by performing a broncheoalveolar lavage (BAL) using 4 lots of 3 ml sterile phosphate-buffered saline introduced through a tracheal cannula. For each animal, the BAL washes were combined, and the total cell population counted (using a haemocytometer). […]
The spleen was also removed from each […] and placed in RPMI+10% FCS+antibiotics. […] The resulting cell suspension was then centrifuged (328 g; 5 mins) and washed in RPMI+10% FCS+antibiotics, before being resuspended in fresh media and counted using a haemocytometer. […]

c(DCys-DGln-DIle-DTrp-DLys-DGln-DLys-DPro-DAsp-DLeu-DCys)-NH2 [NR58-3.14.3]
fold less potent in vivo [1]: > 10,000 fold
half-life period of clearance from blood plasma ([2]; iv): less than 30 minutes
oral bioavailability ([2]; po): not orally bioavailable
fold less potent in vitro [3]: > 25 fold

CC(C)(C)C(=O)NC1CCCNC1=O (stereo not shown) [Compound (I), 3-(2′,2′-dimethylpropanoylamino)-tetrahydropyridin-2-one]
water solubility [4]: significant water solubility
exposure following a single oral dose, fold higher than the other lactam BSCIs tested [5]: more than 10 fold

CC(C)(O)c1ccccc1CC[C@@H](SCC1(CC(=O)O)CC1)c1cccc(/C=C/c2ccc3ccc(Cl)cc3n2)c1 [monteleukast]
number of leukocytes in the BAL washes [6]: significantly reduced the number of leukocytes in the BAL washes

From US7897620B2, “Methods of using anti-inflammatory compounds” (Cambridge Enterprise Limited, priority 2007, dated 2011)
